Laboratory results as given in patent publication EP3868760A1, “2,3,5-SUBSTITUTED PYRROLO[2,3-B]PYRIDINES AS ERBB MODULATORS USEFUL FOR TREATING CANCER” (PearlRiver Bio GmbH, priority 2020, dated 2021).

Legend:
[1] = system: H1975; assay: H1975 CellTiter-Glo assay; format: cell-based; details: Homo sapiens, NCI-H1975; 72 h incubation; read-out: H1975 CTG IC50
Description: (§1) The CellTiter-Glo Luminescent Cell Viability Assay (Promega) is a homogeneous method of determining the number of viable cells in culture. It is based on quantification of ATP, indicating the presence of metabolically active cells. Cells are seeded on day 1 at cell numbers that assure assay linearity and optimal signal intensity. After incubation for 24h in humidified chambers at 37°C and 5% CO2, compounds in DMSO are added at different concentrations. Cells are further incubated for 72 h at 37°C and 5% CO2. Cells treated with the compound vehicle DMSO are used as positive controls and cells treated with 10 µM Staurosporine serve as negative controls. At day 5 the CellTiter Glo Reagent is prepared according to the instructions of the kit (Promega Inc.): Reagent is mixed 1:1 with cell culture medium. Thereon, mixture and assay plates are equilibrated at room temperature for 20 min. Equal volumes of the reagent-medium-mixture is added to the volume of culture medium present in each well. The plates are mixed at ∼200 rpm for 2 minutes on an orbital shaker. The microplates are then incubated at room temperature for 10 minutes for stabilization of the luminescent signal. Following incubation the luminescence is recorded on a Victor microplate reader (Perkin Elmer) using a 200 ms integration time. The data is then analyzed with Excel using the XLFIT Plugin (dose response Fit 205) for IC50-determination. As quality control the Z'-factor is calculated from 16 positive and negative control values. Only assay results showing a Z'-factor ≥ 0.5 are used for further analysis.

[2] = molecular target: EGFR wt (Homo sapiens, UniProt P00533); assay: EGFR wt Lance assay; format: biochemical
Chain of EGFR wt (P00533 25-1210): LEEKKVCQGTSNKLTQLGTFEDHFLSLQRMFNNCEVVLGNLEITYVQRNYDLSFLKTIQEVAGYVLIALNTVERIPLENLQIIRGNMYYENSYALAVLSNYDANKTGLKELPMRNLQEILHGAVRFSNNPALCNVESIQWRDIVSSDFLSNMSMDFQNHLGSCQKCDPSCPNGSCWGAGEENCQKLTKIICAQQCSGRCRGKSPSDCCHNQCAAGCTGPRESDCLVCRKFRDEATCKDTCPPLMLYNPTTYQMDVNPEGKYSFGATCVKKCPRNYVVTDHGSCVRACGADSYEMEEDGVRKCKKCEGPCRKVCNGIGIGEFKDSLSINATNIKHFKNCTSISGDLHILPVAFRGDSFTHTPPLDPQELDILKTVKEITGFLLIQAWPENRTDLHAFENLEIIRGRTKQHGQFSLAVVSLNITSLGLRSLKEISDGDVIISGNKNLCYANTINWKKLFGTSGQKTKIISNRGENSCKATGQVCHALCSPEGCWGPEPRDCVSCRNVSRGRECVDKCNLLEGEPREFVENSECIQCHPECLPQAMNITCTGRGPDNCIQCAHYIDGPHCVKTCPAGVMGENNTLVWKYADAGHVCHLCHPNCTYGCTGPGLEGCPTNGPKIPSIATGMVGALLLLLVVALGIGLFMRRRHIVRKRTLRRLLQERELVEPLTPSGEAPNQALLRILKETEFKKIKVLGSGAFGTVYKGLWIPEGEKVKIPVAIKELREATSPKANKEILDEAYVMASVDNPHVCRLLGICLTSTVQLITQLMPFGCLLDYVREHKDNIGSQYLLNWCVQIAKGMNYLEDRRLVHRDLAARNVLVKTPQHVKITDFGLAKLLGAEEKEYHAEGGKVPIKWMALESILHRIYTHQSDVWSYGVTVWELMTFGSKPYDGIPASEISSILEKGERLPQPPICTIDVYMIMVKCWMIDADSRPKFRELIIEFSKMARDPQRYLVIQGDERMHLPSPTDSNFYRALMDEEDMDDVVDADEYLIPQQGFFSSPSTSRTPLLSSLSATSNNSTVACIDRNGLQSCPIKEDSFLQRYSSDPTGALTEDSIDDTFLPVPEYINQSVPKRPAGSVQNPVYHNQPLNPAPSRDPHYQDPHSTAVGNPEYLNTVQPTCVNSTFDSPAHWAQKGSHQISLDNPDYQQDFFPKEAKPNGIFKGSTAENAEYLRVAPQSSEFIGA

[3] = molecular target: EGFR T790M L858R (Homo sapiens, UniProt P00533, L858R/T790M); assay: EGFR T790ML858R Lance assay; format: biochemical
Chain of EGFR T790M L858R (P00533 25-1210 T790M/L858R): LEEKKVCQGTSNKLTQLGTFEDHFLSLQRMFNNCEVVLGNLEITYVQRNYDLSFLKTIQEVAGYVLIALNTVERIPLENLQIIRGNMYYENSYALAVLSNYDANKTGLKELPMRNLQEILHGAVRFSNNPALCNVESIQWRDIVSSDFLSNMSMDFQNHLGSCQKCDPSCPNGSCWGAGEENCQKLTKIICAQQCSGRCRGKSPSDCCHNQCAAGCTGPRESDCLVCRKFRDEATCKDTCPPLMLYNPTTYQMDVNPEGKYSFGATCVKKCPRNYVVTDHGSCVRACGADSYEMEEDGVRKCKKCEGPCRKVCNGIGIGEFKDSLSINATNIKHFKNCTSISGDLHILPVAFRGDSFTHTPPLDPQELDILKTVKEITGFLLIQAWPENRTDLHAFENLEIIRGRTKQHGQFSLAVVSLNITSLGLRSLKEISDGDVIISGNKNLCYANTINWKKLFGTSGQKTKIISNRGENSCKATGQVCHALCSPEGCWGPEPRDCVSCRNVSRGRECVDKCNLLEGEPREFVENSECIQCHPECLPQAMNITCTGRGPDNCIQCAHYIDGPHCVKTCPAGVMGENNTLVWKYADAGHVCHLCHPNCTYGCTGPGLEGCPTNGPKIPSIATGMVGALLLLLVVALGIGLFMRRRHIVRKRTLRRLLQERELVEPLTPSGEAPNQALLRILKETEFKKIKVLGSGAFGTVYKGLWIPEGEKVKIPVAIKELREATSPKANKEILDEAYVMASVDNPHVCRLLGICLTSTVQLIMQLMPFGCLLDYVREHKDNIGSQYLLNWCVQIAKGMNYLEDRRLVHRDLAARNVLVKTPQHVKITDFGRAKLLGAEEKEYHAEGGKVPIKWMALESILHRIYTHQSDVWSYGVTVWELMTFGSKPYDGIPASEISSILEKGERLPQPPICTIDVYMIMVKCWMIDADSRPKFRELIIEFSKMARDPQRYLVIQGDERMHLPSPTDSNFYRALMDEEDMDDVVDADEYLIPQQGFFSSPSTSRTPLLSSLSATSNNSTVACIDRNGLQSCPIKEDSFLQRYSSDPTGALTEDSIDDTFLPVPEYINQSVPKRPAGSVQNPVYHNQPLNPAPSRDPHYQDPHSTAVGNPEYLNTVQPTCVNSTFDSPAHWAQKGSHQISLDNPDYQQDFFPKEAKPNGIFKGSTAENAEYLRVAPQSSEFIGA

[4] = system: EGFR Exon 20 InsNPH Ba/F3; assay: EGFR Exon 20 InsNPH Ba/F3 CellTiter-Glo assay; format: cell-based; details: Mus musculus, BaF3; 72 h incubation; read-out: EGFR Exon 20 InsNPH Ba/F3 CTG IC50
Description: as §1

[5] = system: A431; assay: A431 CellTiter-Glo assay; format: cell-based; details: Homo sapiens, A-431; 72 h incubation; read-out: A431 CTG IC50
Description: as §1

[6] = system: Her2 Exon 20 InsYVMA Ba/F3; assay: Her2 Exon 20 InsYVMA Ba/F3 CellTiter-Glo assay; format: cell-based; details: Mus musculus, BaF3; 72 h incubation; read-out: Her2 Exon 20 InsYVMA Ba/F3 CTG IC50
Description: as §1

[7] = system: EGFR vIII Ba/F3; assay: EGFR vIII Ba/F3 CellTiter-Glo assay; format: cell-based; details: Mus musculus, BaF3; 72 h incubation; read-out: EGFR vIII Ba/F3 CTG IC50
Description: as §1

[8] = system: Cuto-17; assay: Cuto-17 CellTiter-Glo assay; format: cell-based; details: CUTO17; 72 h incubation; read-out: Cuto-17 CTG IC50
Description: as §1

[9] = molecular target: T1, HER2 INS YVMA (Homo sapiens, UniProt P04626, INS775YVMA); assay: Her2 Exon 20 InsYVMA Lance kinase activity assay; format: biochemical; details: 1 h incubation, 1,6 µM ATP
T1 construct: purchased DPF
T1 sequence (P04626 with tags, fused parts or gaps INS775YVMA): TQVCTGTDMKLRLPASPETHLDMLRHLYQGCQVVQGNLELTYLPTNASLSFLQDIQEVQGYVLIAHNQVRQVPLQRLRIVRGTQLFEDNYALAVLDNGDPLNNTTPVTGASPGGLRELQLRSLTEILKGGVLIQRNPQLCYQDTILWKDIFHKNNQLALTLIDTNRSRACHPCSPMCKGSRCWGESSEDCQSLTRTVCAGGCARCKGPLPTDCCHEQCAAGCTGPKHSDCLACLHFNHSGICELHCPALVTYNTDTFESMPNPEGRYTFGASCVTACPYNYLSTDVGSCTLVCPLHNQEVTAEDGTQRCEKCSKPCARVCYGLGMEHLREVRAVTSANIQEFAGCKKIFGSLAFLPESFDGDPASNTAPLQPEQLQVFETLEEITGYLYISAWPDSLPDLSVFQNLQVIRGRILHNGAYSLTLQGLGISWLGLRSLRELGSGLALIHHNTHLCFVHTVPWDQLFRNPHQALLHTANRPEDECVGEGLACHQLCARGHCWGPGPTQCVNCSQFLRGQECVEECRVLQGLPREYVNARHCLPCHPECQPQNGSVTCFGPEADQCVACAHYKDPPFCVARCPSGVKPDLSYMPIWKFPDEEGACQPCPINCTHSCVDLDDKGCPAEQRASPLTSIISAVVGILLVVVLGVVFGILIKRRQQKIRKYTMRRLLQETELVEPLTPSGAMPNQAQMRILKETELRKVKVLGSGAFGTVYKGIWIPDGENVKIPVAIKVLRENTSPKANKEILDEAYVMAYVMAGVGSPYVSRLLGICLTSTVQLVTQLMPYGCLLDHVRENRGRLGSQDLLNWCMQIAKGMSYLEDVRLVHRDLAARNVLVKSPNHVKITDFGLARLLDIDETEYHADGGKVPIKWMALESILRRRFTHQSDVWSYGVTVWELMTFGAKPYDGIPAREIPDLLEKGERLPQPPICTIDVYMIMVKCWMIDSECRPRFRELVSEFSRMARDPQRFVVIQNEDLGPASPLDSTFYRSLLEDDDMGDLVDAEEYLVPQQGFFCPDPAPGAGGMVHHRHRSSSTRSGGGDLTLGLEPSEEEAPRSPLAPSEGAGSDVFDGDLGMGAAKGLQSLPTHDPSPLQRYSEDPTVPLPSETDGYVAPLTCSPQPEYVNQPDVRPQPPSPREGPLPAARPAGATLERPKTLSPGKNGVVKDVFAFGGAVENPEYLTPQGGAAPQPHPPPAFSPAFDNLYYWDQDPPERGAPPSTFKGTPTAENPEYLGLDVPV
Description: This protocol describes how the Lance Kinase Activity Assay was performed to determine IC50 values of compounds of general formula (I) against HER2 INS YVMA. The principle behind this enzymatic assay is based upon the phosphorylation of the Ulight-peptide substrate. It is detected by using a specific EU-labeled anti-phospho peptide antibody. The binding of the Eu labeled anti-phospho peptide antibody to the phosphorylated ULight labeled peptide gives rise to a FRET-signal.
Binding of an inhibitor to the kinase prevents phosphorylation of the Ulight-substrate, resulting in a loss of FRET. In table 2 is summarized the relevant information for the LANCE assay. Table 2: Reagents, stock concentrations and final assay concentrations for Her2 INS YVMA.
The compounds of general formula (I) summarized in Table 3 were serial diluted from a 10 mM DMSO stock solution 1:3 over 8 steps in a total volume of 20 µl.
For every sample, 8 µl of kinase-substrate mix was transferred into a suitable assay plate (e.g. Corning #3673). Compound was added via pintool transfer (10nl/well) using a Biomek FX robot (BeckmanCoulter). Reaction was started by addition of 2µl ATP working solution and mixed using variomag teleshaker (Thermo Fischer Scientific). After 1 h incubation at room temperature the reaction was stopped with 10µl detection mix containing the Eu-labeled phosphospecific antibody and 10mM EDTA. After a second incubation period of 1 h at room temperature the FRET signal was measured at 340 nm excitation, 665 nm and 615 nm emission (for the ULight-substrate and Eu-AB, respectively) with an Envision spectrophotometer (Perkin Elmer, Waltham, MA, USA) with 50 µs delay and 300 µs integration time. IC50 values were determined from the sigmoidal dose response curves with the software Quattro Workflow (Quattro GmbH, Munich, Germany).

[10] = molecular target: EGFR (del746-750) (Homo sapiens, UniProt P00533, DEL746-750); assay: EGFR (del746-750) Lance assay; format: biochemical
[11] = molecular target: EGFR L858R (Homo sapiens, UniProt P00533, L858R); assay: EGFR L858R Lance assay; format: biochemical
Chain of EGFR L858R (P00533 25-1210 L858R): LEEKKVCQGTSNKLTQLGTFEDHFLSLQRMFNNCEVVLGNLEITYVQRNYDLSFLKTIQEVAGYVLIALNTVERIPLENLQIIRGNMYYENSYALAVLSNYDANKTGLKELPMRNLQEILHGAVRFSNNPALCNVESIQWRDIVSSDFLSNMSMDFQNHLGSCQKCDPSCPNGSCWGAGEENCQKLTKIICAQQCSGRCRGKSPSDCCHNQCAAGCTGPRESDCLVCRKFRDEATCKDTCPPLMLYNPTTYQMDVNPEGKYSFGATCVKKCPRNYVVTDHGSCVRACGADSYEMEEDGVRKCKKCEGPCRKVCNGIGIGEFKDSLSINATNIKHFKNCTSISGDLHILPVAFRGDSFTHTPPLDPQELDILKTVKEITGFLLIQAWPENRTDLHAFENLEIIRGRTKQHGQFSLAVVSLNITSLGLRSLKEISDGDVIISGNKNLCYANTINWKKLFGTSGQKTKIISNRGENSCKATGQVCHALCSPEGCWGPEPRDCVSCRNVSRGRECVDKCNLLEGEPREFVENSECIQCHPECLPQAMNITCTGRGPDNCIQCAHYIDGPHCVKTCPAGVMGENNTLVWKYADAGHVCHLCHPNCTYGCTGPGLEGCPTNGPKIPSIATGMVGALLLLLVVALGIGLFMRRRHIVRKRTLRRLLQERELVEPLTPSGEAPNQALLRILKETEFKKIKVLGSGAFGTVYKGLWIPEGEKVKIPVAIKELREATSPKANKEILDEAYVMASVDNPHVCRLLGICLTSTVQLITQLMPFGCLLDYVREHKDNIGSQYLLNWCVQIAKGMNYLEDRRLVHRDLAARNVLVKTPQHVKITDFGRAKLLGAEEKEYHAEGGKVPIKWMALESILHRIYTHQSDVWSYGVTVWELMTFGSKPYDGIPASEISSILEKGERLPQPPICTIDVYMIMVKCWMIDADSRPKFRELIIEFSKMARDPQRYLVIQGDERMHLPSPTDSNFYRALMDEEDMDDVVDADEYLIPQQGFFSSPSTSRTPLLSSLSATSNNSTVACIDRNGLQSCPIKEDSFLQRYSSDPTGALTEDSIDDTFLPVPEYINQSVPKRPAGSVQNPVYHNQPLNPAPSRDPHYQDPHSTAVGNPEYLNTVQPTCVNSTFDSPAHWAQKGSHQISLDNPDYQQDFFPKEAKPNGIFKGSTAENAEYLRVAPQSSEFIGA

[12] = system: EGFR L858R T790M Ba/F3; assay: EGFR L858RT790M Ba/F3 CellTiter-Glo assay; format: cell-based; details: Mus musculus, BaF3; 72 h incubation; read-out: EGFR L858R T790M Ba/F3 CTG IC50
Description: as §1, with “The microplates are then incubated at room temperature for 10 minutes for stabilization of the luminescent signal.” left out, “Only assay results showing a Z'-factor ≥ 0.5 are used for further analysis.” left out

[13] = system: EGFR L858R Ba/F3; assay: EGFR L858R Ba/F3 CellTiter-Glo assay; format: cell-based; details: Mus musculus, BaF3; 72 h incubation; read-out: EGFR L858R Ba/F3 CTG IC50
Description: as §1, with “The microplates are then incubated at room temperature for 10 minutes for stabilization of the luminescent signal.” left out, “Only assay results showing a Z'-factor ≥ 0.5 are used for further analysis.” left out

Row | Compound | IC50 [1] [nM] | IC50 [2] [nM] | IC50 [3] [nM] | IC50 [4] [nM] | IC50 [5] [nM] | IC50 [6] [nM] | IC50 [7] [nM] | IC50 [8] [nM] | IC50 [9] [nM] | IC50 [10] [nM] | IC50 [11] [nM] | IC50 [12] [nM] | IC50 [13] [nM]
1 | C=CC(=O)Nc1cc(-c2c(-c3ccc(N4CCN(C)CC4)cc3)[nH]c3ncc(-c4cnn(C)c4)cc23)ccc1C [Example 1, N-(2-methyl-5-(5-(1-methyl-1H-pyrazol-4-yl)-2-(4-(4-methylpiperazin-1-yl)phenyl)-1H-pyrrolo[2,3-b]pyridin-3-yl)phenyl)acrylamide] | 100 to 500 | ≤ 50 | ≤ 50 | ≤ 50 | 1000 to 10000 | 100 to 500 | ≤ 50 | 100 to 500 | ≤ 50 |  |  |  | 
2 | C=CC(=O)Nc1cc(-c2c(-c3ccc(N4CCN(C)CC4)cc3)[nH]c3ncc(-c4cn(C)nc4C)cc23)ccc1C [Example 5, N-(5-(5-(1,3-dimethyl-1H-pyrazol-4-yl)-2-(4-(4-methylpiperazin-1-yl)phenyl)-1H-pyrrolo[2,3-b]pyridin-3-yl)-2-methylphenyl)acrylamide] | 500 to 1000 | ≤ 50 | ≤ 50 | ≤ 50 | 1000 to 10000 | 100 to 500 | 50 to 100 | 100 to 500 | ≤ 50 | ≤ 50 | ≤ 50 |  | 
3 | C=CC(=O)Nc1cc(-c2c(-c3ccc(N4CCN(C)CC4)cc3)[nH]c3ncc(-c4cnn(CC)c4)cc23)ccc1C [Example 4, N-(5-(5-(1-ethyl-1H-pyrazol-4-yl)-2-(4-(4-methylpiperazin-1-yl)phenyl)-1 H-pyrrolo[2,3-b]pyridin-3-yl)-2-methylphenyl)acrylamide] | 100 to 500 | ≤ 50 | ≤ 50 | ≤ 50 | 500 to 1000 | 50 to 100 | ≤ 50 | 100 to 500 | ≤ 50 |  |  |  | 
4 | C=CC(=O)Nc1cc(-c2c(-c3ccc(N4CCN(C)CC4)cc3)[nH]c3ncc(-c4cnn(C)c4C)cc23)ccc1C [Example 3, N-(5-(5-(1,5-dimethyl-1H-pyrazol-4-yl)-2-(4-(4-methylpiperazin-1-yl)phenyl)-1H-pyrrolo[2,3-b]pyridin-3-yl)-2-methylphenyl)acrylamide] | 50 to 100 | ≤ 50 | ≤ 50 | ≤ 50 | 500 to 1000 | ≤ 50 | ≤ 50 | ≤ 50 | ≤ 50 |  |  |  | 
5 | C=CC(=O)Nc1cc(-c2c(-c3ccc(N4CCN(C)CC4)cc3)[nH]c3ncc(-c4cnn(C5CC5)c4)cc23)ccc1C [Example 6, N-(5-(5-(1-cyclopropyl-1H-pyrazol-4-yl)-2-(4-(4-methylpiperazin-1-yl)phenyl)-1H-pyrrolo[2,3-b]pyridin-3-yl)-2-methylphenyl)acrylamide] | 100 to 500 | ≤ 50 | ≤ 50 | ≤ 50 | 1000 to 10000 | ≤ 50 | ≤ 50 | 100 to 500 | ≤ 50 | ≤ 50 | ≤ 50 | ≤ 50 | ≤ 50
6 | C=CC(=O)Nc1cc(-c2c(-c3ccc(N4CCN(C)CC4)cc3)[nH]c3ncc(-c4ccnn4C)cc23)ccc1C [Example 2, N-(2-methyl-5-(5-(1-methyl-1H-pyrazol-5-yl)-2-(4-(4-methylpiperazin-1-yl)phenyl)-1H-pyrrolo[2,3-b]pyridin-3-yl)phenyl)acrylamide] | 100 to 500 | ≤ 50 | ≤ 50 | 50 to 100 | 1000 to 10000 | 100 to 500 | ≤ 50 | 100 to 500 | ≤ 50 |  |  |  | 
7 | C=CC(=O)Nc1cc(-c2c(-c3ccc(N4CCN(C)CC4)cc3)[nH]c3ncc(-c4cnn(CCOC)c4)cc23)ccc1C [Example 7, N-(5-(5-(1-(2-methoxyethyl)-1H-pyrazol-4-yl)-2-(4-(4-methylpiperazin-1-yl)phenyl)-1H-pyrrolo[2,3-b]pyridin-3-yl)-2-methylphenyl)acrylamide] | 100 to 500 | ≤ 50 | ≤ 50 | ≤ 50 | 1000 to 10000 | 100 to 500 | ≤ 50 | 100 to 500 | ≤ 50 |  |  |  | 
